According to the supplement of paper PMC11208160:

Test: recombinant barcode read abundance after kanamycin selection (control-corrected) (log10(CPM+1)); higher = more efficient recombination; sequences stand for … in AGTGCAGAGAAAATCGGCCAGTTTTCTCTGCCTGCAGTCCGCATGCCGT…AGATTTATGCAGCGGACTGCCTTTCTCCCAAAGTGATAAACCGGACAGTATCATGGACCGGTTTTCCCGGTAATCCGTATTTGCAAGGTTGGTTTCACT; site = the 11-nt target
Summary of the method: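 In a pooled screen in E. coli, targets were paired with target-binding loops of the IS621 bridge RNA. Each oligo carried a promoter, a target, a barcode and the first 104 bridge RNA bases driven by J23119, and was Gibson-cloned into a vector holding the remaining 73 bp and a T7-inducible recombinase before co-electroporation with a donor plasmid. Duplicate platings went onto chloramphenicol/ampicillin LB agar as the control or onto chloramphenicol/ampicillin/kanamycin with 0.1 mM IPTG. Recombination efficiency is the averaged, control-corrected count per million of barcodes at recombinant junctions, given as log10(CPM+1).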
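Also: IS621 recombinase and bridge RNA in Escherichia coli cells.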

| Sequence | recombinant barcode read abundance (log10) |
| --- | --- |
| TCTGGAGCTTGGGTTCTAACCTGTTGCAG (site CCAGGAGCTCT) | 0.0636 |
| TCTGGAGCTTGGGTTCTAACCTGTTGCAG (site TCTGGAGCTCT) | 0.938 |
| TCTGGGGCTTGGGTTCTAACCTGTTGCCG (site TCTGGGGCTCA) | 0.536 |
| TCTGGGGCTTGGGTTCTAACCTGTTGCCG (site TCTGGGGCTCC) | 1.44 |
| TCTGGGGCTTGGGTTCTAACCTGTTGCCG (site TCTGGGGCTCG) | 1.89 |
| TCTGGGGCTTGGGTTCTAACCTGTTGCCG (site TCTGGGGCTCT) | 0.618 |
| TCTGGGGCTTGGGTTCTAACCTGTTGCTG (site TCTGGGGCTCA) | 2.04 |
| TCTGGGGCTTGGGTTCTAACCTGTTGCTG (site TCTGGGGCTCC) | 0.216 |
| TCTGGGGCTTGGGTTCTAACCTGTTGCTG (site TCTGGGGCTCG) | 0.792 |
| TCTGGGGCTTGGGTTCTAACCTGTTGCTG (site TCTGGGGCTCT) | 0.936 |
| TCTTAGGCTTGGGTTCTAACCTGTTGCGT (site TCCTAGGCTGC) | 0.21 |
| TCTTAGGCTTGGGTTCTAACCTGTTGCGT (site TCTTAGGCTAC) | 1.63 |
| TCTTATACTTGGGTTCTAACCTGTTGCGT (site TCTTATACTAC) | 0.403 |
| TCTTATACTTGGGTTCTAACCTGTTGCGT (site TCTTATACTAT) | 0 |
| TCTTATTCTTGGGTTCTAACCTGTTGCCT (site TCTGATTCTCG) | 0.062 |
| TCTTATTCTTGGGTTCTAACCTGTTGCCT (site TCTTATTCTAG) | 0.0342 |
| TCTTGGACTTGGGTTCTAACCTGTTGCTG (site TCTTGGACTAA) | 0.159 |
| TCTTGGACTTGGGTTCTAACCTGTTGCTG (site TCTTGGACTCA) | 0.0828 |
| TCTTGGACTTGGGTTCTAACCTGTTGCTG (site TCTTGGACTGA) | 0.174 |
| TCTTGGACTTGGGTTCTAACCTGTTGCTG (site TCTTGGACTTA) | 0.0733 |
| TCTTGTTCTTGGGTTCTAACCTGTTGCCT (site ACTTGTTCTAG) | 0.383 |
| TCTTGTTCTTGGGTTCTAACCTGTTGCCT (site CCTTGTTCTAG) | 0.179 |

| Sequence | recombinant barcode read abundance (log10) |
| --- | --- |
| TCTTGTTCTTGGGTTCTAACCTGTTGCCT (site GCTTGTTCTAG) | 0.0895 |
| TCTTGTTCTTGGGTTCTAACCTGTTGCCT (site TCTTGTTCTAG) | 0.145 |
| TGAAATACTTGGGTTCTAACCTGTTGCCT (site TGAAATACTAG) | 0.232 |
| TGAAATACTTGGGTTCTAACCTGTTGCCT (site TGAACTACTAG) | 0.0246 |
| TGAAATACTTGGGTTCTAACCTGTTGCCT (site TGAAGTACTAG) | 0 |
| TGAAATACTTGGGTTCTAACCTGTTGCCT (site TGAATTACTAG) | 0.00965 |
| TGAAATGCTTGGGTTCTAACCTGTTGCCT (site TGAAATGCTAG) | 0.329 |
| TGAAATGCTTGGGTTCTAACCTGTTGCCT (site TGACATGCTAG) | 0.0158 |
| TGAAATGCTTGGGTTCTAACCTGTTGCCT (site TGAGATGCTAG) | 0.256 |
| TGAAATGCTTGGGTTCTAACCTGTTGCCT (site TGATATGCTAG) | 0.288 |
| TGAACGCCTTGGGTTCTAACCTGTTGCCT (site AGTACGCCTAG) | 0.0861 |
| TGAACGCCTTGGGTTCTAACCTGTTGCCT (site TGAACGCCTAG) | 0.39 |
| TGAACGTCTTGGGTTCTAACCTGTTGCCT (site TGAAAGTCTAG) | 0.232 |
| TGAACGTCTTGGGTTCTAACCTGTTGCCT (site TGAACGTCTAG) | 0.384 |
| TGAACGTCTTGGGTTCTAACCTGTTGCCT (site TGAAGGTCTAG) | 0.0344 |
| TGAACGTCTTGGGTTCTAACCTGTTGCCT (site TGAATGTCTAG) | 0.378 |
| TGAACTACTTGGGTTCTAACCTGTTGCCT (site TGAAATACTAG) | 0.0445 |
| TGAACTACTTGGGTTCTAACCTGTTGCCT (site TGAACTACTAG) | 0.192 |
| TGAACTACTTGGGTTCTAACCTGTTGCCT (site TGAAGTACTAG) | 0.0835 |
| TGAACTACTTGGGTTCTAACCTGTTGCCT (site TGAATTACTAG) | 0.065 |
| TGAAGTCCTTGGGTTCTAACCTGTTGCGG (site CGACGTCCTCC) | 0.0219 |
| TGAAGTCCTTGGGTTCTAACCTGTTGCGG (site TGAAGTCCTCC) | 1.25 |

| Sequence | recombinant barcode read abundance (log10) |
| --- | --- |
| TGACAGGCTTGGGTTCTAACCTGTTGCAG (site GTACAGGCTCT) | 0.278 |
| TGACAGGCTTGGGTTCTAACCTGTTGCAG (site TGACAGGCTCT) | 1.88 |
| TGACCAGCTTGGGTTCTAACCTGTTGCCT (site TGACCAGCTAG) | 1.05 |
| TGACCAGCTTGGGTTCTAACCTGTTGCCT (site TGAGAAGCTAG) | 0.0639 |
| TGACCTTCTTGGGTTCTAACCTGTTGCCT (site TGACCTTCTAG) | 0.526 |
| TGACCTTCTTGGGTTCTAACCTGTTGCCT (site TGACGTTCTAG) | 0.0226 |
| TGACGCTCTTGGGTTCTAACCTGTTGCCT (site TGACGCTCTAG) | 0.905 |
| TGACGCTCTTGGGTTCTAACCTGTTGCCT (site TGCCGCTCTAG) | 0.149 |
| TGACGCTCTTGGGTTCTAACCTGTTGCCT (site TGGCGCTCTAG) | 0.323 |
| TGACGCTCTTGGGTTCTAACCTGTTGCCT (site TGTCGCTCTAG) | 0.433 |
| TGACTACCTTGGGTTCTAACCTGTTGCCT (site TCGCTACCTAG) | 0.0696 |
| TGACTACCTTGGGTTCTAACCTGTTGCCT (site TGACTACCTAG) | 0.838 |
| TGACTAGCTTGGGTTCTAACCTGTTGCCT (site TGACTAGCTAG) | 0.176 |
| TGACTAGCTTGGGTTCTAACCTGTTGCCT (site TGCCTAGCTAG) | 0.03 |
| TGACTAGCTTGGGTTCTAACCTGTTGCCT (site TGGCTAGCTAG) | 0.0206 |
| TGACTAGCTTGGGTTCTAACCTGTTGCCT (site TGTCTAGCTAG) | 0.0443 |
| TGAGAACCTTGGGTTCTAACCTGTTGCCT (site AGAGAACCTAG) | 0.666 |
| TGAGAACCTTGGGTTCTAACCTGTTGCCT (site CGAGAACCTAG) | 0.486 |
| TGAGAACCTTGGGTTCTAACCTGTTGCCT (site GGAGAACCTAG) | 0.118 |
| TGAGAACCTTGGGTTCTAACCTGTTGCCT (site TGAGAACCTAG) | 2.33 |
| TGAGAGGCTTGGGTTCTAACCTGTTGCCT (site TGAGAGGCTAG) | 0.718 |
| TGAGAGGCTTGGGTTCTAACCTGTTGCCT (site TGAGCGGCTAG) | 0.173 |

| Sequence | recombinant barcode read abundance (log10) |
| --- | --- |
| TGAGAGGCTTGGGTTCTAACCTGTTGCCT (site TGAGGGGCTAG) | 0.361 |
| TGAGAGGCTTGGGTTCTAACCTGTTGCCT (site TGAGTGGCTAG) | 0.638 |
| TGAGTCCCTTGGGTTCTAACCTGTTGCCT (site TGAGTCCCTAG) | 2.03 |
| TGAGTCCCTTGGGTTCTAACCTGTTGCCT (site TGCGTCCCTAG) | 0.201 |
| TGAGTCCCTTGGGTTCTAACCTGTTGCCT (site TGGGTCCCTAG) | 0.444 |
| TGAGTCCCTTGGGTTCTAACCTGTTGCCT (site TGTGTCCCTAG) | 0.523 |
| TGATATGCTTGGGTTCTAACCTGTTGCCT (site TGAAATGCTAG) | 0.322 |
| TGATATGCTTGGGTTCTAACCTGTTGCCT (site TGACATGCTAG) | 0.347 |
| TGATATGCTTGGGTTCTAACCTGTTGCCT (site TGAGATGCTAG) | 0.0846 |
| TGATATGCTTGGGTTCTAACCTGTTGCCT (site TGATATGCTAG) | 0.463 |
| TGATTGACTTGGGTTCTAACCTGTTGCTT (site GATGCACCTCC) | 0.194 |
| TGATTGACTTGGGTTCTAACCTGTTGCTT (site TGATTGACTAA) | 0.0769 |
| TGCATAGCTTGGGTTCTAACCTGTTGCCA (site CTTGCGACTAA) | 0.068 |
| TGCATAGCTTGGGTTCTAACCTGTTGCCA (site TGCATAGCTTG) | 0.0795 |
| TGCCACCCTTGGGTTCTAACCTGTTGCGT (site TACTACCCTAC) | 0.0993 |
| TGCCACCCTTGGGTTCTAACCTGTTGCGT (site TGCCACCCTAC) | 2.14 |
| TGCCCCGCTTGGGTTCTAACCTGTTGCCT (site ACTTAGTCTGA) | 0.341 |
| TGCCCCGCTTGGGTTCTAACCTGTTGCCT (site TGCCCCGCTAG) | 1.11 |
| TGCCGAACTTGGGTTCTAACCTGTTGCCT (site AGCCGAACTAG) | 0.0709 |
| TGCCGAACTTGGGTTCTAACCTGTTGCCT (site CGCCGAACTAG) | 0.16 |
